Source: patent US20250074891A1 (Anaxis Pharma Pty Ltd., priority 2021, published 2025)

Columns and labels:
Details in all cases: Table 35
MLKL (full length) = MLKL (full length) (Homo sapiens (Human), UniProt Q8NB16); test: KINOMEscan binding assay, MLKL (full length)
Method: (§1) Kinase assays. For most assays, kinase-tagged T7 phage strains were grown in parallel in 24-well blocks in an E. coli host derived from the BL21 strain. E. coli were grown to log-phase and infected with T7 phage from a frozen stock (multiplicity of infection=0.4) and incubated with shaking at 32° C. until lysis (90-150 minutes).
(§2) The Hill Slope was set to −1.

RIP1 = RIP1 (Homo sapiens (Human), UniProt Q13546); test: KINOMEscan binding assay, RIP1
Sequence of RIP1 (Q13546 whole entry): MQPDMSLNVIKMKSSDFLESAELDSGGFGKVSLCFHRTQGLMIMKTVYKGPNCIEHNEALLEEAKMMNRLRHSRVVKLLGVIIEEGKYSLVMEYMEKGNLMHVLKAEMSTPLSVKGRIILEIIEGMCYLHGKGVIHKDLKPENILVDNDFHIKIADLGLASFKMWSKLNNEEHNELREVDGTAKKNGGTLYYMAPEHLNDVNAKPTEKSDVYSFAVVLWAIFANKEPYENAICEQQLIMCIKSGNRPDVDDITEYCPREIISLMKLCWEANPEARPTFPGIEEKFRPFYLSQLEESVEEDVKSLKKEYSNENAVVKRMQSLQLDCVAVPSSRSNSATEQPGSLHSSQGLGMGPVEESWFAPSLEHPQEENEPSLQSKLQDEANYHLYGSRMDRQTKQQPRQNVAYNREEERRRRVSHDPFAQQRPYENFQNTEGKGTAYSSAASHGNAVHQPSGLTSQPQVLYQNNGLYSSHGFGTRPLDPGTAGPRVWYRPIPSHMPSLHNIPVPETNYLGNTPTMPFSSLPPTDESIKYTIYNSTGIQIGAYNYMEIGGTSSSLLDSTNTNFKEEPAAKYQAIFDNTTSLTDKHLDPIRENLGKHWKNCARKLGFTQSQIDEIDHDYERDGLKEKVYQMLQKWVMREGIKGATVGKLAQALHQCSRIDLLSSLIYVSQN

RIP3 = RIP3 (Homo sapiens (Human), UniProt Q9Y572); test: KINOMEscan binding assay, RIP3
Sequence of RIP3 (Q9Y572 whole entry): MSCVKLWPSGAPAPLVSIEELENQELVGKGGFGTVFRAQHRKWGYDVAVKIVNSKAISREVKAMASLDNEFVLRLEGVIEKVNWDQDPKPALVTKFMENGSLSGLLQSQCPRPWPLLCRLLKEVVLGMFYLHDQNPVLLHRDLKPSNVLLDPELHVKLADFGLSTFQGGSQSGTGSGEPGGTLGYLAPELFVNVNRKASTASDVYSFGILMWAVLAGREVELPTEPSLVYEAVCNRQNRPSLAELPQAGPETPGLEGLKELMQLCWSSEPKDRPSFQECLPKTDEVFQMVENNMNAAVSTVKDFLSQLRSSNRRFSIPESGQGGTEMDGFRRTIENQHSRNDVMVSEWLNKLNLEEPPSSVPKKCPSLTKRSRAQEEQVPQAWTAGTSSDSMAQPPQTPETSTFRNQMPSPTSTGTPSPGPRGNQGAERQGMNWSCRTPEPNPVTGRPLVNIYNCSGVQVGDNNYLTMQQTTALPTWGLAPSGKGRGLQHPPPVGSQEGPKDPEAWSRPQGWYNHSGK
Method: as §1, §2

Sequence of MLKL (full length) (Q8NB16 whole entry): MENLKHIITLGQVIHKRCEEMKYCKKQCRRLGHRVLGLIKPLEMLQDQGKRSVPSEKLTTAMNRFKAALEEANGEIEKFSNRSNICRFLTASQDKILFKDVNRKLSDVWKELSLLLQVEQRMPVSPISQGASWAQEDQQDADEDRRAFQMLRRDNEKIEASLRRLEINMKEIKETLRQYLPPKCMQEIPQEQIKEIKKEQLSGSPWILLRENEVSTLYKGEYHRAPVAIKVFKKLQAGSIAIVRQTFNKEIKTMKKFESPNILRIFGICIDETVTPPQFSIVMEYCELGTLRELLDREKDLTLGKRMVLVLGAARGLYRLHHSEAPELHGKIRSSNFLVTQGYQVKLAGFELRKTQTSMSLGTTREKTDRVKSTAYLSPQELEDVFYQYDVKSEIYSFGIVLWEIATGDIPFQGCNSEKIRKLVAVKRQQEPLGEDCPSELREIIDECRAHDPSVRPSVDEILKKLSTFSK

Q: Which results are given for `NC(=O)c1c(-c2ccc(NS(=O)(=O)CC(F)F)c(OCc3ccc(F)cc3)c2)n[nH]c1Nc1cnccn1` [Compound 180, 3-(4-((2,2-difluoroethyl)sulfonamido)-3-((4-fluorobenzyl)oxy)phenyl)-5-(pyrazin-2-ylamino)-1H-pyrazole-4-carboxamide]?
A: Kd (MLKL (full length)): < 0.01 µM; Kd (RIP1): > 30 µM; Kd (RIP3): > 30 µM

Q: Which results are given for `Cc1cnc(Nc2[nH]nc(-c3ccc(NS(=O)(=O)CCC(F)(F)F)c(OCc4ccc(F)cc4)c3)c2C(N)=O)cn1` [Compound 183, 3-(3-((4-fluorobenzyl)oxy)-4-((3,3,3-trifluoropropyl)sulfonamido)phenyl)-5-((5-methylpyrazin-2-yl)amino)-1H-pyrazole-4-carboxamide]?
A: Kd (MLKL (full length)): < 0.01 µM; Kd (RIP1): > 30 µM; Kd (RIP3): > 30 µM

Q: Which Kd (MLKL (full length)) does the source give for `NC(=O)c1c(-c2ccc(NS(=O)(=O)CCC(F)(F)F)c(OCc3ccc(F)cc3)c2)n[nH]c1Nc1cnccn1` [Compound 184, 3-(3-((4-fluorobenzyl)oxy)-4-((3,3,3-trifluoropropyl)sulfonamido)phenyl)-5-(pyrazin-2-ylamino)-1H-pyrazole-4-carboxamide] here?
A: < 0.01 µM

Q: And the Kd (RIP1)?
A: > 30 µM

Q: And the Kd (RIP3)?
A: > 30 µM

Q: What does the source list for `CCS(=O)(=O)Nc1ccc(-c2n[nH]c(Nc3cnccn3)c2C(N)=O)cc1Oc1ccc(Cl)cc1` [Compound 185, 3-(3-(4-chlorophenoxy)-4-(ethylsulfonamido)phenyl)-5-(pyrazin-2-ylamino)-1H-pyrazole-4-carboxamide]?
A: Kd (MLKL (full length)): < 0.01 µM; Kd (RIP1): > 30 µM; Kd (RIP3): > 30 µM

Q: For `NC(=O)c1c(-c2ccc(NS(=O)(=O)CC(F)(F)F)c(OCc3ccc(F)cc3)c2)n[nH]c1Nc1ccnc(C(F)(F)F)n1` [Compound 186, 3-(3-((4-fluorobenzyl)oxy)-4-((2,2,2-trifluoroethyl)sulfonamido)phenyl)-5-((2-(trifluoromethyl)pyrimidin-4-yl)amino)-1H-pyrazole-4-carboxamide], which Kd (MLKL (full length)) is on record?
A: < 0.01 µM

Q: And the Kd (RIP1)?
A: > 30 µM

Q: And the Kd (RIP3)?
A: > 30 µM

Q: `NC(=O)c1c(-c2ccc(NS(=O)(=O)C(F)F)c(OCc3ccc(F)cc3)c2)n[nH]c1Nc1ccc(C(F)(F)F)nc1` [Compound 188, 3-(4-((difluoromethyl)sulfonamido)-3-((4-fluorobenzyl)oxy)phenyl)-5-((6-(trifluoromethyl)pyridine-3-yl)amino)-1H-pyrazole-4-carboxamide] was tested. Which Kd (MLKL (full length)) did it give?
A: < 0.01 µM

Q: And the Kd (RIP1)?
A: > 30 µM

Q: What about the Kd (RIP3) of the same compound?
A: > 30 µM

Q: With `COc1cnc(Nc2[nH]nc(-c3ccc(NS(=O)(=O)C(F)F)c(OCc4ccc(Cl)cc4)c3)c2C(N)=O)cn1` [Compound 190, 3-(3-((4-chlorobenzyl)oxy)-4-((difluoromethyl)sulfonamido)phenyl)-5-((5-methoxypyrazin-2-yl)amino)-1H-pyrazole-4-carboxamide] as the compound, how does the Kd (MLKL (full length)) read?
A: < 0.01 µM

Q: What about the Kd (RIP1) of the same compound?
A: > 30 µM

Q: What about the Kd (RIP3) of the same compound?
A: > 30 µM

Q: Which results are given for `COc1cnc(Nc2[nH]nc(-c3ccc(NS(=O)(=O)C(F)F)c(OCc4ccc(F)cc4)c3)c2C(N)=O)cn1` [Compound 191, 3-(4-((difluoromethyl)sulfonamido)-3-((4-fluorobenzyl)oxy)phenyl)-5-((5-methoxypyrazin-2-yl)amino)-1H-pyrazole-4-carboxamide]?
A: Kd (MLKL (full length)): < 0.01 µM; Kd (RIP1): > 30 µM; Kd (RIP3): > 30 µM

Q: `CCS(=O)(=O)Nc1ccc(-c2n[nH]c(Nc3cnccn3)c2C(N)=O)cc1O[C@H](C)c1ccc(F)cc1` [Compound 193, (R)-3-(4-(ethylsulfonamido)-3-(1-(4-fluorophenyl)ethoxy)phenyl)-5-(pyrazin-2-ylamino)-1H-pyrazole-4-carboxamide] was tested. Which Kd (MLKL (full length)) did it give?
A: < 0.01 µM

Q: And the Kd (RIP1)?
A: > 30 µM

Q: And the Kd (RIP3)?
A: > 30 µM

Q: For `CCS(=O)(=O)Nc1ccc(-c2n[nH]c(Nc3ccc(C(F)(F)F)nc3)c2C(N)=O)cc1OCc1ccc(F)cc1` [Compound 194], which Kd (MLKL (full length)) is on record?
A: < 0.01 µM

Q: And the Kd (RIP1)?
A: > 30 µM

Q: And the Kd (RIP3)?
A: > 30 µM

Q: Which results are given for `CCS(=O)(=O)Nc1ccc(-c2n[nH]c(Nc3ccnc(C(F)(F)F)n3)c2C(N)=O)cc1OCc1ccc(F)cc1` [Compound 195, 3-(4-(ethylsulfonamido)-3-((4-fluorobenzyl)oxy)phenyl)-5-((2-(trifluoromethyl)pyrimidin-4-yl)amino)-1H-pyrazole-4-carboxamide]?
A: Kd (MLKL (full length)): < 0.01 µM; Kd (RIP1): > 30 µM; Kd (RIP3): > 30 µM

Q: Which Kd (MLKL (full length)) does the source give for `CCS(=O)(=O)Nc1ccc(-c2n[nH]c(Nc3cnccn3)c2C(N)=O)c(OCc2ccc(Cl)cc2)c1` [Compound 198, 3-(2-((4-chlorobenzyl)oxy)-4-(ethylsulfonamido)phenyl)-5-(pyrazin-2-ylamino)-1H-pyrazole-4-carboxamide] here?
A: < 0.01 µM

Q: What about the Kd (RIP1) of the same compound?
A: > 30 µM

Q: What about the Kd (RIP3) of the same compound?
A: > 30 µM

Q: With `CCS(=O)(=O)Nc1ccc(-c2n[nH]c(Nc3cnccn3)c2C(N)=O)cc1O[C@@H](C)c1ccc(F)cc1` [Compound 199, (S)-3-(4-(ethylsulfonamido)-3-(1-(4-fluorophenyl)ethoxy)phenyl)-5-(pyrazin-2-ylamino)-1H-pyrazole-4-carboxamide] as the compound, how does the Kd (MLKL (full length)) read?
A: < 0.01 µM

Q: What about the Kd (RIP1) of the same compound?
A: > 30 µM

Q: What about the Kd (RIP3) of the same compound?
A: > 30 µM

Q: `CCS(=O)(=O)Nc1ccc(-c2n[nH]c(Nc3ccccn3)c2C(N)=O)c(OCc2ccc(F)cc2)c1` [Compound 201] was tested. Which Kd (MLKL (full length)) did it give?
A: < 0.01 µM

Q: What about the Kd (RIP1) of the same compound?
A: > 30 µM

Q: What about the Kd (RIP3) of the same compound?
A: > 30 µM

Q: Which Kd (MLKL (full length)) does the source give for `NC(=O)c1c(-c2ccc(NS(=O)(=O)C(F)F)c(OCc3ccc(F)cc3)c2)n[nH]c1Nc1cnccn1` [Compound 202, 3-(4-((difluoromethyl)sulfonamido)-3-((4-fluorobenzyl)oxy)phenyl)-5-(pyrazin-2-ylamino)-1H-pyrazole-4-carboxamide] here?
A: < 0.01 µM

Q: And the Kd (RIP1)?
A: > 30 µM

Q: What about the Kd (RIP3) of the same compound?
A: > 30 µM

Q: How did the Kd (MLKL (full length)) turn out when `CCS(=O)(=O)Nc1ccc(-c2n[nH]c(Nc3cnccn3)c2C(N)=O)cc1Oc1cccc(F)c1` [Compound 204, 3-(4-(ethylsulfonamido)-3-(3-fluorophenoxy)phenyl)-5-(pyrazin-2-ylamino)-1H-pyrazole-4-carboxamide] was run?
A: < 0.01 µM

Q: And the Kd (RIP1)?
A: > 30 µM

Q: What about the Kd (RIP3) of the same compound?
A: > 30 µM

Q: How did the Kd (MLKL (full length)) turn out when `NC(=O)c1c(-c2ccc(NS(=O)(=O)C(F)(F)F)cc2)n[nH]c1Nc1cccc(C(F)(F)F)n1` [Compound 205] was run?
A: < 0.01 µM

Q: What about the Kd (RIP1) of the same compound?
A: > 30 µM

Q: And the Kd (RIP3)?
A: > 30 µM

Q: Which results are given for `CCS(=O)(=O)Nc1ccc(-c2n[nH]c(Nc3cnccn3)c2C(N)=O)cc1OCCc1ccccc1Cl` [Compound 206, 3-(3-(2-chlorophenethoxy)-4-(ethylsulfonamido)phenyl)-5-(pyrazin-2-ylamino)-1H-pyrazole-4-carboxamide]?
A: Kd (MLKL (full length)): < 0.01 µM; Kd (RIP1): > 30 µM; Kd (RIP3): > 30 µM

Q: `CCS(=O)(=O)Nc1ccc(-c2n[nH]c(Nc3cnccn3)c2C(N)=O)cc1OCCc1ccccc1` [Compound 210, 3-(4-(ethylsulfonamido)-3-phenethoxyphenyl)-5-(pyrazin-2-ylamino)-1H-pyrazole-4-carboxamide] was tested. Which Kd (MLKL (full length)) did it give?
A: < 0.01 µM

Q: What about the Kd (RIP1) of the same compound?
A: > 30 µM

Q: What about the Kd (RIP3) of the same compound?
A: > 30 µM

Q: Which Kd (MLKL (full length)) does the source give for `CCS(=O)(=O)Nc1ccc(-c2n[nH]c(Nc3cnccn3)c2C(N)=O)cc1OCCc1ccccc1F` [Compound 211, 3-(4-(ethylsulfonamido)-3-(2-fluorophenethoxy)phenyl)-5-(pyrazin-2-ylamino)-1H-pyrazole-4-carboxamide] here?
A: < 0.01 µM

Q: What about the Kd (RIP1) of the same compound?
A: > 30 µM

Q: What about the Kd (RIP3) of the same compound?
A: > 30 µM

Q: How did the Kd (MLKL (full length)) turn out when `CCS(=O)(=O)Nc1ccc(-c2n[nH]c(Nc3cc(C(F)(F)F)ccn3)c2C(N)=O)cc1OCc1ccc(F)cc1` [Compound 213] was run?
A: 0.01 to 1 µM

Q: And the Kd (RIP1)?
A: > 30 µM

Q: What about the Kd (RIP3) of the same compound?
A: > 30 µM

Q: How did the Kd (MLKL (full length)) turn out when `NC(=O)c1c(-c2ccc(NS(=O)(=O)C(F)F)c(OCc3ccc(F)cc3)c2)n[nH]c1Nc1cccc(C(F)(F)F)n1` [Compound 217] was run?
A: < 0.01 µM

Q: What about the Kd (RIP1) of the same compound?
A: > 30 µM

Q: What about the Kd (RIP3) of the same compound?
A: > 30 µM

Q: What does the source list for `CCS(=O)(=O)Nc1ccc(-c2n[nH]c(Nc3cnccn3)c2C(N)=O)cc1OCCc1cccc(F)c1` [Compound 219, 3-(4-(ethylsulfonamido)-3-(3-fluorophenethoxy)phenyl)-5-(pyrazin-2-ylamino)-1H-pyrazole-4-carboxamide]?
A: Kd (MLKL (full length)): < 0.01 µM; Kd (RIP1): > 30 µM; Kd (RIP3): > 30 µM

Q: `COCCOc1cc(Nc2[nH]nc(-c3ccc(NS(=O)(=O)N(C)C)cc3)c2C(N)=O)ccn1` [Compound 221, 3-(4-((N,N-dimethylsulfamoyl)amino)phenyl)-5-((2-(2-methoxyethoxy)pyridin-4-yl)amino)-1H-pyrazole-4-carboxamide] was tested. Which Kd (MLKL (full length)) did it give?
A: < 0.01 µM

Q: And the Kd (RIP1)?
A: > 30 µM

Q: And the Kd (RIP3)?
A: > 30 µM

Q: For `C[C@H](Oc1cc(-c2n[nH]c(Nc3cnccn3)c2C(N)=O)ccc1NS(=O)(=O)C(F)F)c1ccc(F)cc1` [Compound 223, 3-[4-(difluoromethanesulfonamido)-3-[(1S)-1-(4-fluorophenyl)ethoxy]phenyl]-5-[(pyrazin-2-yl)amino]-1H-pyrazole-4-carboxamide], which Kd (MLKL (full length)) is on record?
A: < 0.01 µM

Q: What about the Kd (RIP1) of the same compound?
A: > 30 µM

Q: And the Kd (RIP3)?
A: > 30 µM

Q: Which results are given for `NC(=O)c1c(-c2ccc(NS(=O)(=O)CC(F)(F)F)c(OCc3ccc(F)c(Cl)c3)c2)n[nH]c1Nc1cnccn1` [Compound 225, 3-{3-[(3-chloro-4-fluorophenyl)methoxy]-4-(2,2,2-trifluoroethane-sulfonamido)phenyl}-5-[(pyrazin-2-yl)amino]-1H-pyrazole-4-carboxamide]?
A: Kd (MLKL (full length)): < 0.01 µM; Kd (RIP1): > 30 µM; Kd (RIP3): > 30 µM

Q: What does the source list for `NC(=O)c1c(-c2ccc(NS(=O)(=O)C(F)F)c(OCc3ccc(F)c(F)c3)c2)n[nH]c1Nc1ccccn1` [Compound 226]?
A: Kd (MLKL (full length)): < 0.01 µM; Kd (RIP1): > 30 µM; Kd (RIP3): > 30 µM

Q: What does the source list for `NC(=O)c1c(-c2ccc(NS(=O)(=O)CC(F)(F)F)c(OCc3ccccn3)c2)n[nH]c1Nc1cnccn1` [Compound 227, 5-[(pyrazin-2-yl)amino]-3-{3-[(pyridin-2-yl)methoxy]-4-(2,2,2-trifluoroethanesulfonamido)phenyl}-1H-pyrazole-4-carboxamide]?
A: Kd (MLKL (full length)): < 0.01 µM; Kd (RIP1): > 30 µM; Kd (RIP3): > 30 µM

Q: With `CCS(=O)(=O)Nc1ccc(-c2n[nH]c(Nc3cnccn3)c2C(N)=O)cc1OC(C)(C)c1ccc(F)cc1` [Compound 228, 3-(4-ethanesulfonamido-3-{[2-(4-fluorophenyl)propan-2-yl]oxy}phenyl)-5-[(pyrazin-2-yl)amino]-1H-pyrazole-4-carboxamide] as the compound, how does the Kd (MLKL (full length)) read?
A: < 0.01 µM

Q: What about the Kd (RIP1) of the same compound?
A: > 30 µM

Q: And the Kd (RIP3)?
A: > 30 µM
